Counter-ions that a name gives are not always drawn. Like-named read-outs stand apart in the source and are kept apart here.
How the values were obtained:
[1] = Solubility of AQ2CA without cyclodextrins (UV-Vis); type: physicochemical; details: 25 °C, thermodynamic from solid
Excerpt: (§1) Anthraquinone-2-carboxylic acid (AQ2CA) is a poorly water-soluble drug (SAQ2CA in water = 3.98 × 10^−5 M). […] An improvement in the aqueous solubility of AQ2CA would improve the biological availability of the drug. Such a drug solubilization effect was achieved via complexation using appropriate CD derivatives. The phase solubility method developed by Higuchi and Connors was employed to quantify the solubilization ability of cyclodextrins. The solubility values of AQ2CA in water, BR buffer at pH 7.4 (pH corresponding to the physiological conditions), and BR buffer at pH 3.0, with the addition of CDs was determined. The pH values characteristic for bodily fluids (pH 7.4) and for gastric juices (pH 3) were chosen for these measurements. […] According to the Higuchi and Connors classification, the phase solubility diagrams for anthraquinone-2-carboxylic acid with various cyclodextrin concentrations can be classified as AL type.
(§2) Solubility studies of anthraquinone-2-carboxylic acid with three different cyclodextrins were carried out according to the Higuchi and Connors procedure. The solutions of cyclodextrin in water and Britton–Robinson buffers (pH 7.4 and 5.5) were prepared in a concentration range of 0–3 mM. A constant amount of AQ2CA (3 mM) that exceeded its solubility was added into the cyclodextrin solution. Molar ratios of AQ2CA/CD were 1:0, 1:0.2, 1:0.4, 1:0.6, 1:0.8, and 1:1. Three samples of each molar ratio were prepared. The suspensions were shaken for 24 h at 25 °C, after which equilibrium was reached. After 24 h, the concentration of the dissolved drug was monitored by UV-Vis spectroscopy and plateaued; thus, the maximum dissolved drug was achieved. Subsequently, the samples were filtered using a 0.45 µm filter and appropriately diluted. The aliquots of solutions were assayed for AQ2CA again, by UV-Vis spectroscopy, in the 200–600 nm range with a maximum absorbance value for AQ2CA at 335 nm. […] The association constants of the inclusion complexes were determined using the following equation:(1) K1:1=Slope/S0(1−Slope) where K1:1 is the association constant and S0 is the solubility of AQ2CA in the absence of cyclodextrin. The slope was measured by UV-Vis spectroscopy from the initial straight-line part of the AQ2CA concentration vs. CD concentration plot. The uncertainty was determined as the standard deviation of the three values of the association constants obtained from three different repetitions of the given system.

[2] = cited from earlier work
[3] = Phase solubility diagrams (Higuchi and Connors) of AQ2CA with cyclodextrins; type: physicochemical; details: for K1:1 (association constant, AQ2CA–cyclodextrin): phase solubility diagram, 25 °C; for Increase in solubility of AQ2CA (in words): pH 3.0
Excerpt: as §1
The association constant of the AQ2CA–cyclodextrin complex (1:1) was calculated from the linear plot of the phase solubility diagrams using Equation (1). The lines are started at the point of initial drug solubility, meaning, i.e., without the addition of cyclodextrin. The values of K1:1, as well as the solubility increase and correlation coefficients of the phase solubility diagrams, are presented in Table 1.
as §2, with “The solutions of cyclodextrin in water and Britton–Robinson buffers (pH 7.4 and 5.5) were prepared in a concentration range of 0–3 mM.” left out

[4] = Determination of pKa values of CD derivatives by UV-Vis spectroscopy; type: physicochemical; details: Britton–Robinson buffer, pH range 2.7 to 9.5, triazole linker
Excerpt: Due to the fact that the triazole linker in CD derivatives contains a basic nitrogen atom that can be protonated at an acidic pH, we determined the value of pKa by UV-Vis spectroscopy. The spectra of βCDGAL, βCDLip, and βCDTriazol, at the pH range between 2.7 and 9.5, are presented on Figure 3. The dependence of the absorbance of the peak maximum at wavelengths in the range of 210–220 on the pH of the buffer is presented in the figures. According to the equation […] for equal concentrations of the protonated and deprotonated forms, pKa = pH; the pKa value, for all three derivatives containing the triazole linker, was determined to be 4.5.
The UV-Vis measurements were performed using an Agilent Technologies Cary 60 UV-Vis Spectrophotometer (Santa Clara, CA, USA). All UV-Vis spectra were measured using quartz cuvettes with a 1 cm optical path length. For pKa determination the 0.2 mg/mL concentration of βCDTriazole, βCDGAL or βCDLip in Britton–Robinson buffer were used.

Row | Structure (SMILES) | K1:1 (association constant, AQ2CA–cyclodextrin) ([3]; Britton–Robinson buffer pH 3.0) [M⁻¹] | K1:1 (association constant, AQ2CA–cyclodextrin) ([3]; Britton–Robinson buffer pH 7.4) [M⁻¹] | K1:1 (association constant, AQ2CA–cyclodextrin) ([3]; water) [M⁻¹] | pKa [4] | also measured
1 | O=C(O)c1ccc2c(c1)C(=O)c1ccccc1C2=O [AQ2CA, 9,10-dihydro-9,10-dioxo-2-anthracenecarboxylic acid] |  |  |  |  | solubility at 24 h ([1]; aqueous buffer, Britton–Robinson buffer pH 3.0, without CDs, read-out: Solubility of AQ2CA in Britton–Robinson buffer, pH 3.0): 1.43 µM; solubility at 24 h ([1]; aqueous buffer, Britton–Robinson buffer pH 3.0, read-out: Solubility in Britton–Robinson buffer, pH 3.0 without CDs): 0.36 µg/mL; solubility at 24 h ([1]; aqueous buffer, Britton–Robinson buffer pH 7.4, without CDs, read-out: Solubility of AQ2CA in Britton–Robinson buffer, pH 7.4): 1740 µM; solubility at 24 h ([1]; aqueous buffer, Britton–Robinson buffer pH 7.4, read-out: Solubility in Britton–Robinson buffer, pH 7.4 without CDs): 440 µg/mL; solubility at 24 h ([1]; water, without CDs, read-out: Solubility of AQ2CA in water): 39.8 µM; solubility at 24 h ([1]; water, water, read-out: Solubility in water without CDs): 10 µg/mL
2 | COc1cccc2c1C(=O)c1c(O)c3c(c(O)c1C2=O)C[C@@](O)(C(C)=O)C[C@@H]3O[C@H]1C[C@H](N)[C@H](O)[C@H](C)O1 [DNR, daunorubicin] |  |  |  |  | pKa [2]: 7.48
3 | OC[C@H]1O[C@@H]2O[C@H]3[C@H](O)[C@@H](O)[C@@H](O[C@H]4[C@H](O)[C@@H](O)[C@@H](O[C@H]5[C@H](O)[C@@H](O)[C@@H](O[C@H]6[C@H](O)[C@@H](O)[C@@H](O[C@H]7[C@H](O)[C@@H](O)[C@@H](O[C@H]8[C@H](O)[C@@H](O)[C@@H](O[C@H]1[C@H](O)[C@H]2O)O[C@@H]8CO)O[C@@H]7CO)O[C@@H]6CO)O[C@@H]5CO)O[C@@H]4CO)O[C@@H]3CO [βCD, β-Cyclodextrin] | 1480 ± 180 | 350 ± 40 | 460 ± 45 |  | 
4 | O=C(N[C@H]1C(O)O[C@H](CO)[C@H](O)[C@@H]1O)OCc1cn(C[C@H]2O[C@@H]3O[C@H]4[C@H](O)[C@@H](O)[C@@H](O[C@H]5[C@H](O)[C@@H](O)[C@@H](O[C@H]6[C@H](O)[C@@H](O)[C@@H](O[C@H]7[C@H](O)[C@@H](O)[C@@H](O[C@H]8[C@H](O)[C@@H](O)[C@@H](O[C@H]9[C@H](O)[C@@H](O)[C@@H](O[C@H]2[C@H](O)[C@H]3O)O[C@@H]9CO)O[C@@H]8CO)O[C@@H]7CO)O[C@@H]6CO)O[C@@H]5CO)O[C@@H]4CO)nn1 (stereo partly drawn) [βCDGAL] | 2760 ± 110 | 1300 ± 60 | 840 ± 45 | 4.5 | Increase in solubility of AQ2CA (in words) [3]: almost tenfold increase
5 | O=C(CCCCC1CCSS1)OCc1cn(C[C@H]2O[C@@H]3O[C@H]4[C@H](O)[C@@H](O)[C@@H](O[C@H]5[C@H](O)[C@@H](O)[C@@H](O[C@H]6[C@H](O)[C@@H](O)[C@@H](O[C@H]7[C@H](O)[C@@H](O)[C@@H](O[C@H]8[C@H](O)[C@@H](O)[C@@H](O[C@H]9[C@H](O)[C@@H](O)[C@@H](O[C@H]2[C@H](O)[C@H]3O)O[C@@H]9CO)O[C@@H]8CO)O[C@@H]7CO)O[C@@H]6CO)O[C@@H]5CO)O[C@@H]4CO)nn1 (stereo partly drawn) [βCDLip] | 2520 ± 175 | 940 ± 25 | 800 ± 40 | 4.5 | Increase in solubility of AQ2CA (in words) [3]: almost tenfold increase
6 | CCCc1cn(C[C@H]2O[C@@H]3O[C@H]4[C@H](O)[C@@H](O)[C@@H](O[C@H]5[C@H](O)[C@@H](O)[C@@H](O[C@H]6[C@H](O)[C@@H](O)[C@@H](O[C@H]7[C@H](O)[C@@H](O)[C@@H](O[C@H]8[C@H](O)[C@@H](O)[C@@H](O[C@H]9[C@H](O)[C@@H](O)[C@@H](O[C@H]2[C@H](O)[C@H]3O)O[C@@H]9CO)O[C@@H]8CO)O[C@@H]7CO)O[C@@H]6CO)O[C@@H]5CO)O[C@@H]4CO)nn1 [βCDTriazol] |  |  |  | 4.5 | 
7 | NC[C@H]1O[C@@H]2O[C@H]3[C@H](O)[C@@H](O)[C@@H](O[C@H]4[C@H](O)[C@@H](O)[C@@H](O[C@H]5[C@H](O)[C@@H](O)[C@@H](O[C@H]6[C@H](O)[C@@H](O)[C@@H](O[C@H]7[C@H](O)[C@@H](O)[C@@H](O[C@H]8[C@H](O)[C@@H](O)[C@@H](O[C@H]1[C@H](O)[C@H]2O)O[C@@H]8CO)O[C@@H]7CO)O[C@@H]6CO)O[C@@H]5CO)O[C@@H]4CO)O[C@@H]3CO [βCDamine, 6-monodeoxy-6-monoamino-β-cyclodextrin hydrochloride] | 2450 ± 200 |  | 280 ± 30 |  | pKa ([2]; amine derivative CD): 8.84

Source: article PMC8659250, “Adjusting the Structure of β-Cyclodextrin to Improve Complexation of Anthraquinone-Derived Drugs” (Molecules, 2021)
